# Where a SMILES comes first, the peptide text is derived from it. Where no end group is shown, it is not given here. The star is where a group is joined. Palmitoyl = CCCCCCCCCCCCCCCC(=O)*
# What was measured:
# [1] = target: T1, Elastase derived from human leukocytes (Homo sapiens, UniProt P08246); assay: Inhibition of elastase activity (synthetic substrate, absorbance at 405 nm); type: biochemical; settings: for Inhibition of elastase activity (%): 100 µg/mL
# T1 construct: Elastase derived from human leukocytes was used; from tissue; host or cells: human leukocytes
# T1 sequence (P08246 30-267): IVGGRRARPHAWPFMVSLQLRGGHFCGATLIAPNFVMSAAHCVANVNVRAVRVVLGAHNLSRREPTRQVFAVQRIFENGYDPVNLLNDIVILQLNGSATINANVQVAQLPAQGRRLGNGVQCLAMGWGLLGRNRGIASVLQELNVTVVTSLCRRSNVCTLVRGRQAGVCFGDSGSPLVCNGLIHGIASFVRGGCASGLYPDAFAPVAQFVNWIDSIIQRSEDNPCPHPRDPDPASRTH
# Method: (§1) In order to investigate the effect of peptide sequence variation, the activity of […] was tested as in Test Example 1 after sequence variation. Elastase derived from human leukocytes was used, and the synthetic substrate MeOSuc-Ala-Ala-Pro-Val-pNA was used as the substrate of elastase. A 100 mM Tris (pH 7.5) solution was used as a buffer solution. The elastase was diluted finally to 0.2 mU using the buffer solution. In addition, the synthetic substrate of elastase was prepared into a 100 mM solution using DMSO, and then diluted to a final concentration of 0.5 mM using a buffer solution. As a positive control group, quercetin known to inhibit elastase was used at a concentration of 10 ppm. The candidates of elastase inhibition were tested at final concentrations of 10 and 20 ppm. Reaction was conducted in a 96-well plate at room temperature for 20 minutes. The inhibition of the enzyme activity was determined by measuring absorbance at 405 nm using a spectrophotometer with 1-minute intervals, and calculating the slope of the absorbance versus time.
# (§2) The peptide sequences of SEQ ID NOS 14 to 16 were treated at 100 µg/mL, and the peptide sequence RKSLFVD was used as a control peptide sequence. The inhibition of collagenase activity (%) and the inhibition of elastase activity (%) were calculated from the relative enzyme activity versus the control group, and the result is given in Table 4.
# (§3) In order to investigate the effect of variation of the N-terminal or C-terminal of the peptide sequence, the activity of collagenase and elastase was tested after sequence variation as in Test Example 1.
# [2] = system: acetylcholine release at the neuromuscular synapses; settings: cited from earlier work
# [3] = system: Collagenase derived from the mouse pancreas; assay: Inhibition of collagenase activity (synthetic substrate, absorbance at 345 nm); type: biochemical; settings: 100 µg/mL
# Method: Collagenase derived from the mouse pancreas was used, and the synthetic substrate N-(3-[2-furyl]acryloyl)-Leu-Gly-Pro-Ala was used as the substrate of collagenase. A buffer solution in which 50 mM tricine, 10 mM CaCl2·H2O and 400 mM NaCl were dissolved (pH 7.5) was used. The synthetic substrate was dissolved in the buffer solution to a concentration of 10 mM and finally diluted to 75 µM. The collagenase was dissolved to a concentration of 1 unit/mL using cold triply distilled water at 4 °C and then finally diluted to 0.05 unit/mL using a buffer solution. The candidates of collagenase inhibition were tested at final concentrations of 25 and 50 ppm. As a positive control group, epigallocatechin gallate (EGCG) known to have the effect of inhibiting collagenase was used at a final concentration of 50 ppm. Reaction was conducted in a 96-well plate at room temperature for 10 minutes. The inhibition of the enzyme activity was determined by measuring absorbance at 345 nm using a spectrophotometer with 1-minute intervals, and calculating the maximum slope of the absorbance versus time.
# as §1, §2, §3
# [4] = Table 5, N-terminal or C-terminal variation
# [5] = Table 4, relative enzyme activity versus the control group
Compound,"inhibition at 100 µg/mL [1, 5] [%]",Inhibition of collagenase activity (%) ([3]; Table 3),also measured
CC(=O)N[C@@H](CCCCN)C(=O)NCC(=O)N[C@@H](CCCNC(=N)N)C(=O)N[C@@H](CO)C(=O)N[C@@H](CO)C(=O)N[C@@H](CS)C(=O)N[C@@H](Cc1ccccc1)C(=O)N[C@H](C(=O)N[C@@H](CC(=O)O)C(=O)N[C@@H](CS)C(=O)O)C(C)C (Ac-KGRSSCFVDC-OH),–,–,"inhibition at 100 µg/mL [1, 4]: 71%"
CCCCCCCCCCCCCCCC(=O)N[C@@H](CCCCN)C(=O)NCC(=O)N[C@@H](CCCNC(=N)N)C(=O)N[C@@H](CO)C(=O)N[C@@H](CO)C(=O)N[C@@H](CS)C(=O)N[C@@H](Cc1ccccc1)C(=O)N[C@H](C(=O)N[C@@H](CC(=O)O)C(=O)N[C@@H](CS)C(=O)O)C(C)C (Palmitoyl-KGRSSCFVDC-OH),–,–,"inhibition at 100 µg/mL [1, 4]: 74.1%"
CC(C)[C@H](NC(=O)[C@H](Cc1ccccc1)NC(=O)[C@H](CS)NC(=O)[C@H](CO)NC(=O)[C@H](CO)NC(=O)[C@H](CCCNC(=N)N)NC(=O)CNC(=O)[C@@H](N)CCCCN)C(=O)N[C@@H](CC(=O)O)C(=O)N[C@@H](CS)C(N)=O [C-amine-substituted peptide of SEQ ID] (H-KGRSSCFVDC-NH2),–,–,"inhibition at 100 µg/mL [1, 4]: 52.6%"
Ac-Glu-Glu-Met-Gln-Arg-Arg-NH2 (Ac-EEMQRR-NH2) [Argireline],–,–,times weaker than Botox [2]: 5000 times
CDVFCSSRGK [SEQ ID NO 14],–,–,"Inhibition of elastase activity (%) [1, 5]: 68.5%; Inhibition of collagenase activity (%) [3, 5]: 24.77%"
"DVFCSSRGK [SEQ ID NO 15, DVFCSSRGK]",65.5,–,–
"FCSSRGK [SEQ ID NO 16, FCSSRGK]",51.5,–,–
"KGRSSCF [SEQ ID NO 3, KGRSSCF]",57.8,–,–
KGRSSCFDC [SEQ ID NO 11],–,11.82,–
KGRSSCFVC [SEQ ID NO 12],–,13.97,–
"KGRSSCFVD [SEQ ID NO 2, KGRSSCFVD]",70.9,–,–
KGRSSCFVDC [SEQ ID NO 1],–,22.91,"Inhibition of elastase activity (%) [1, 5]: 72.1%; Inhibition of elastase activity (%) [1, 4]: 68.3%; Inhibition of collagenase activity (%) [3, 5]: 21.57%; Inhibition of collagenase activity (%) [3, 4]: 22.6%"
KGSSCFVDC [SEQ ID NO 10],–,15.24,–
"RKSLFVD [Control peptide sequence, RKSLFVD, reference compound]",5.2,–,"inhibition at 100 µg/mL [1, 4]: 1.3%"
RSSCFVDC [SEQ ID NO 5],–,12.23,–
SSCFVDC [SEQ ID NO 6],–,17.97,–

# — patent EP4635974A1, “COSMETIC COMPOSITION FOR SKIN IMPROVEMENT” (LG Household & Health Care Ltd., priority 2022, dated 2024)
